Laboratory results taken from patent publication US8895552B2, “Cyclic amide derivative” (Sumitomo Dainippon Pharma Co., Ltd., priority 2010, dated 2014).

Target: T1, 11βHSD1 (Homo sapiens, UniProt P28845)
T1 construct: host or cells: normal human visceral preadipocytes differentiated to adipocytes
Test: Inhibitory activity assay against cortisone reducing activity of cultured human adipocytes
Assay type: cell-based
Conditions: differentiated normal human preadipocytes (HPrAD-vis), 100 nM [1,2-3H] cortisone, 37° C., read-out: IC50 against cortisone reducing activity of human adipose cell
Experimental: Experiment 1: Inhibitory Activity Assay Against Cortisone Reducing Activity of Cultured Human Adipocytes
Normal human preadipocytes (HPrAD-vis, manufactured by Cambrex corporation) were inoculated onto a 48-well cell culture plate, and the differentiation induction was carried out according to Protocol attached to the kit. The medium for the cells on the 9-11 days of the differentiation was changed to D-MEM medium (0.2 ml; manufactured by GIBCO) containing 100 nM [1,2-^3H] cortisone (1 μCi/well, manufactured by Muromachi Yakuhin), 0.5% dimethylsulfoxide and a test compound (for test compound treated group, or dimethylsulfoxide only for the no-test compound treated group). The plate was incubated at 37° C. for 3 hours, and then the whole medium was collected. As a background group, the medium without cell was used. The medium was mixed with ethyl acetate (0.1 ml) in an Eppendorf tube. This mixture was voltexed, and then further centrifuged at 5,000 rpm for one minute at room temperature to separate the ethyl acetate (the upper layer). The ethyl acetate (10 μl) was spotted on an aluminium plate for thin layer chromatography (silica gel 60 angstrom, Merck & Co., Inc., hereinafter referred to as TLC plate). The developing solvent (chloroform/methanol (90:10, v/v)) was put into a sealed vessel, and the TLC plate was developed, and then dried at room temperature. An imaging plate (TR-2040, Fujifilm) was exposed onto the dried TLC plate for 16 hours or more. After the exposure was completed, the imaging plate was analyzed by Bioimage Analyzer (BAS2500, Fujifilm), and the [^3H] radioactivity was measured at the corresponding position of cortisol developed on the TLC plate. The inhibitory activity of a test compound against cortisone reducing activity was calculated according to the following equation. (inhibitory activity(%))=100×((group without test compound)−(group with test compound))/((group without test compound)−(background group))
The IC50 value was calculated by linear regression of logarithmic value of the concentration of test compound and the inhibitory activity value, using the data at 2 points showing around 50% of the inhibitory activity. […] The IC50 value of the following compounds of the present invention against cortisone reducing activity of human adipose cell was determined.

T1 sequence (P28845 whole entry): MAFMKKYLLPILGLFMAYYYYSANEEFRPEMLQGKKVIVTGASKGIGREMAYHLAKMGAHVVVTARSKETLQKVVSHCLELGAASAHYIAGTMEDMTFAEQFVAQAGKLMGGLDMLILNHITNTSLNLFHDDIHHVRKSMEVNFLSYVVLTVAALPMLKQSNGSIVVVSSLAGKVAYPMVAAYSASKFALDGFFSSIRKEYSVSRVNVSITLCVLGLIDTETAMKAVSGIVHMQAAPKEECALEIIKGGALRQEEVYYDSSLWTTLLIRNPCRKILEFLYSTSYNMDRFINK

| Structure (SMILES) | IC50 |
| --- | --- |
| Cc1cc(C(=O)c2cccn2C)sc1C(=O)NC1C2CC3CC1CC(O)(C3)C2 (stereo not drawn) [Example 11] | 4.3 nM |
| COCc1cc(C(=O)c2ccccc2)ccc1C(=O)N[C@H]1C2CC3CC1C[C@](O)(C3)C2 [Example 51] | < 3 nM |
| O=C(Cc1ccccc1)c1ccc(C(=O)N[C@H]2C3CC4CC2C[C@](O)(C4)C3)c(Cl)c1 [Example 52] | 12 nM |
| CCc1cc(C(=O)c2ccc(F)cc2)ccc1C(=O)NC1C2CC3CC1CC(O)(C3)C2 (stereo not drawn) [Example 98] | 3 nM |
| CCn1nccc1C(=O)c1ccc(C(=O)NC2C3CC4CC2CC(O)(C4)C3)c(COC)c1 (stereo not drawn) [Example 368] | 3.7 nM |
| CCCc1cc(C(=O)c2cccn2C)ccc1C(=O)NC1C2CC3CC1CC(O)(C3)C2 (stereo not drawn) [Example 424] | < 3 nM |
| COCc1cc(C(=O)c2ccccn2)ccc1C(=O)NC1C2CC3CC1CC(O)(C3)C2 (stereo not drawn) [Example 429] | 9.5 nM |
| CCc1cc(C(=O)c2ccc(C)s2)n(C)c1C(=O)NC1C2CC3CC1CC(O)(C3)C2 (stereo not drawn) [Example 499] | < 3 nM |
| CCc1cc(C(=O)C2(c3ccccc3)CCC2)n(C)c1C(=O)NC1C2CC3CC1CC(O)(C3)C2 (stereo not drawn) [Example 504] | 7.3 nM |

Other lines, results leading:

| IC50 | Structure (SMILES) |
| --- | --- |
| 3.6 nM | O=C(c1ccc(C(=O)NC2C3CC4CC2CC(O)(C4)C3)c(Cl)c1)c1ccccc1F (stereo not drawn) [Example 16] |
| 16 nM | Cn1cccc1C(=O)c1ccc(C(=O)N[C@H]2C3CC4CC2C[C@](O)(C4)C3)c(Cl)c1 [Example 53] |
| < 3 nM | Cc1cc(C(=O)c2ccccc2)n(C)c1C(=O)N[C@H]1C2CC3CC1C[C@](O)(C3)C2 [Example 62] |
| < 3 nM | COCc1cc(C(=O)c2ccccc2)n(C)c1C(=O)N[C@H]1C2CC3CC1C[C@](O)(C3)C2 [Example 440, 5-Benzoyl-N-[(E)-5-hydroxyadamantan-2-yl]-3-(methoxymethyl)-1-methyl-1H-pyrrole-2-carboxamide] |
| 1.4 nM | COCCc1cc(C(=O)c2ccccc2F)ccc1C(=O)N[C@H]1C2CC3CC1C[C@](O)(C3)C2 [Example 443, 4-(2-Fluorobenzoyl)-N-[(E)-5-hydroxyadamantan-2-yl]-2-(2-methoxyethyl)benzamide] |
| 2.8 nM | CCc1cc(C(=O)c2cccc(OC)c2F)n(C)c1C(=O)NC1C2CC3CC1CC(O)(C3)C2 (stereo not drawn) [Example 486] |
| 4.2 nM | CCc1cc(C(=O)c2cccc(F)c2F)n(C)c1C(=O)NC1C2CC3CC1CC(O)(C3)C2 (stereo not drawn) [Example 488] |
| 1.5 nM | Cn1c(C(=O)c2cccc(F)c2)cc(Cl)c1C(=O)NC1C2CC3CC1CC(O)(C3)C2 (stereo not drawn) [Example 515] |
| < 3 nM | Cn1c(C(=O)c2ccc(F)cc2)cc(Cl)c1C(=O)NC1C2CC3CC1CC(O)(C3)C2 (stereo not drawn) [Example 516] |

Target: T2, cortisone reductase (11βHSD1) (Mus musculus, UniProt P50172)
T2 construct: host or cells: primary cells from visceral fat tissue of ICR male mice, differentiated to adipocytes in culture
Test: Inhibitory activity assay against cortisone reductase of mouse primary adipocytes
Assay type: cell-based
Conditions: differentiated primary adipocytes from visceral fat of ICR male mice, 100 nM [1,2-3H] cortisone, 37° C., read-out: IC50 against cortisone reductase of mouse adipose cell
Experimental: Experiment 2: Inhibitory Activity Assay Against Cortisone Reductase of Mouse Primary Adipocytes
The adipose tissues adhered to the mesenterium and around the testicle of ten ICR male mice (9 to 11 weeks old, Japan SLC Inc.) (hereinafter, referred to as visceral fat tissue) were soaked in about 100 mL of a phosphate buffer (0.20 g/L KCl, 0.20 g/L KH2PO4, 8.00 g/L NaCl, 2.16 g/L Na2HPO4.7H2O, 100 unit/ml penicillin (GIBCO), 100 μg/ml streptomycin (GIBCO), 250 ng/ml amphotericin (GIBCO)) and washed at room temperature.
The excised visceral fat tissues was cut finely in about 5×5 mm with scissors in Dulbecco's modified Eagle medium (about 50 ml, containing 4.5 g/L D-glucose and 584 mg/L L-glutamine, GIBCO) to which collagenase (Type II, Sigma), penicillin (GIBCO), streptomycin (GIBCO) and amphotericin (GIBCO) were added in an amount so that the final concentrations thereof are adjusted to 1 mg/ml, 100 unit/ml, 100 μg/ml and 250 ng/ml, respectively. Then, the mixture was shaken at 37° C. for 30 minutes (about 170 rpm), filtered through nylon mesh (80S [the pore size: 250 μm], SANSHIN INDUSTRIAL CO., LTD.), and the filtrate (cell suspension) was collected. This filtrate was centrifuged at 1800 rpm at room temperature for 5 minutes, and then, the liquid layer was removed stilly by decantation to give a precipitate. This precipitate was suspended in Dulbecco's modified Eagle medium (30 ml, containing 4.5 g/L D-glucose and 584 mg/L L-glutamine, GIBCO; hereinafter, occasionally referred to as FBS-containing medium), to which fetal bovine serum (hereinafter referred to as FBS, GIBCO), ascorbic acid (Wako Pure Chemical Industries, Ltd.), penicillin (GIBCO), streptomycin (GIBCO) and amphotericin (GIBCO) are added thereto in an amount so that the final concentrations thereof were adjusted to 10%, 200 μM, 100 units/ml, 100 μg/ml and 250 ng/ml, respectively, and then the suspension was filtered through a nylon mesh (420S [pore size: 25 μm], SANSHIN INDUSTRIAL CO., LTD.). The filtrate was collected, and centrifuged at 1800 rpm at room temperature for 5 minutes. The liquid layer was removed stilly by decantation, and the precipitate was suspended again in the FBS-containing medium (30 ml). This suspension was treated by the same procedure (centrifugation, removal of liquid layer, suspension in FBS-containing medium) two times more, and the suspension (90 ml) was prepared. This suspension was put into cell culture flasks (T150, for adhered cell culture, Iwaki Glass) in a each volume of 30 ml, and incubated at 37° C. in the presence of 5% CO2. At 5 to 6 hours after starting incubation, the medium was removed, and the wall of the flask was washed with the above-mentioned phosphate buffer (15 ml). The washing liquid was removed, and the washing procedure was repeated again, and the phosphate buffer was removed. To the flask was added FBS-containing medium (30 ml), and the mixture was incubated at 37° C. in the presence of 5% CO2. On Day 1 or Day 2 after the culture started, the medium was removed, and the wall of the flask was washed with the phosphate buffer (15 ml) once. To the flask was added a trypsin-ethylenediamine tetraacetate (hereinafter, referred to as trypsin-EDTA) solution (0.05% trypsin, 0.53 mM EDTA.4Na, GIBCO) in such a volume that the cells are duly soaked, and the mixture was allowed to stand at 37° C. for 5 minutes. To this mixture was added the FBS-containing medium in about 10-times volume of that of the trypsin-EDTA solution, and then the cell suspension was obtained.
The cells in the cell suspension were counted with a counting chamber, and the cell suspension was diluted with the FBS-containing medium so that the concentration of the cell was adjusted to 1.4×10^5 cells/ml. Thus obtained cell dilution was put into a 48-well plate (for adherent cell culture, Iwaki Glass) in an amount of 300 μl per well, and the plate was incubated at 37° C. in the presence of 5% CO2 for 1 to 2 day(s). […]

T2 sequence (P50172 whole entry): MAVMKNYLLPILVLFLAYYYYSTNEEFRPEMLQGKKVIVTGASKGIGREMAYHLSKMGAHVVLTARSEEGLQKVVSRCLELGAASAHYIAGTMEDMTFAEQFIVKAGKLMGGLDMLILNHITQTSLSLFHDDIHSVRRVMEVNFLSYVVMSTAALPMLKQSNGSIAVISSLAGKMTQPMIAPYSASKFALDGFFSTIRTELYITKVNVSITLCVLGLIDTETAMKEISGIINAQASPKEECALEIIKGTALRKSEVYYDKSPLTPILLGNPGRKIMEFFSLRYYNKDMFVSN

| Structure (SMILES) | IC50 |
| --- | --- |
| Cc1cc(C(=O)C2CCOCC2)sc1C(=O)N[C@H]1C2CC3CC1C[C@](O)(C3)C2 [Example 9] | 11.1 nM |
| Cc1cc(C(=O)c2cccs2)sc1C(=O)NC1C2CC3CC1CC(O)(C3)C2 (stereo not drawn) [Example 10] | 11.7 nM |
| Cc1cc(C(=O)c2cccn2C)sc1C(=O)NC1C2CC3CC1CC(O)(C3)C2 (stereo not drawn) [Example 11] | 5.1 nM |
| COc1cc(C(=O)c2cccn2C)ccc1C(=O)NC1C2CC3CC1CC(O)(C3)C2 (stereo not drawn) [Example 55] | 4.8 nM |
| CCOc1cc(C(=O)c2cc(F)ccc2F)ccc1C(=O)NC1C2CC3CC1CC(O)(C3)C2 (stereo not drawn) [Example 258] | 3.2 nM |
| CCc1cc(C(=O)c2cccn2C)n(C)c1C(=O)NC1C2CC3CC1CC(O)(C3)C2 (stereo not drawn) [Example 485] | 18.4 nM |
| CCc1cc(C(=O)C(C)(C)c2ccccc2)n(C)c1C(=O)NC1C2CC3CC1CC(O)(C3)C2 (stereo not drawn) [Example 505] | 9.6 nM |

The remaining lines, values ahead:

| IC50 | Structure (SMILES) |
| --- | --- |
| 25 nM | CCc1cc(C(=O)c2c(F)cccc2F)n(C)c1C(=O)NC1C2CC3CC1CC(O)(C3)C2 (stereo not drawn) [Example 487] |
| 20.7 nM | Cn1c(C(=O)c2ccccc2F)cc(Cl)c1C(=O)NC1C2CC3CC1CC(O)(C3)C2 (stereo not drawn) [Example 514] |
